In ChEMBL document CHEMBL3132826, “Investigation of a tetrahydroisoquinoline scaffold as dual-action steroid sulfatase inhibitors generated by parallel solid-phase synthesis” (Medchemcomm, 2013):

Experiments:
[1] = target: T1, Steryl-sulfatase (Homo sapiens) (UniProt P08842); experiment: Inhibition of STS (unknown origin) expressed in HEK-293 cells assessed as transformation of [3H]-E1S into E1 at 1 uM by […]; assay type: cell-based; conditions: HEK293
T1 sequence (whole entry): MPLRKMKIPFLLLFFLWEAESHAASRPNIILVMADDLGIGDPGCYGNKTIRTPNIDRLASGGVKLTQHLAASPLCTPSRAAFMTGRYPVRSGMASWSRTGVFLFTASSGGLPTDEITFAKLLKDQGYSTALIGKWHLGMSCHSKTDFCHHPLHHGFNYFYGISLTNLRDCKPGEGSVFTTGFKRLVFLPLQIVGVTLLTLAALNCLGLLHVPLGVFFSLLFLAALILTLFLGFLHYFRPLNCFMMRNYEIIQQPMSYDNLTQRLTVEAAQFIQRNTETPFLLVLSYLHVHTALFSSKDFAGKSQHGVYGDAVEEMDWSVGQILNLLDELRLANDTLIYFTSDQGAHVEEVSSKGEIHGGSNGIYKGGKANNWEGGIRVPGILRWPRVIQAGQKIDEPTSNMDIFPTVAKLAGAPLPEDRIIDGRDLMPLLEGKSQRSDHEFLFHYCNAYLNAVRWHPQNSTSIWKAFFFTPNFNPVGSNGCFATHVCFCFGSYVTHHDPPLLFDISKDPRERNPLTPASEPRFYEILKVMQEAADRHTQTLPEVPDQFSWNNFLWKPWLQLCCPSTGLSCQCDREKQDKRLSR

[2] = target: T1, Steryl-sulfatase (Homo sapiens); experiment: Inhibition of STS (unknown origin) expressed in HEK-293 cells assessed as transformation of [3H]-E1S into E1 at 0.1 uM by […]; assay type: cell-based; conditions: HEK293
MCF7 [3] = experiment: Estrogenic activity in human MCF7 cells assessed as cell proliferation at 0.1 uM by MTS assay relative to basal level; assay type: ADME, cell-based; conditions: mcf7, 0.1 µM
MCF7 [4] = experiment: Estrogenic activity in human MCF7 cells assessed as cell proliferation at 0.01 uM by MTS assay relative to basal level; assay type: ADME, cell-based; conditions: mcf7, 0.01 µM
MCF7 [5] = experiment: Estrogenic activity in human MCF7 cells assessed as cell proliferation at 1 uM by MTS assay relative to basal level; assay type: ADME, cell-based; conditions: mcf7, 1 µM

Structure (SMILES)	inhibition [1]	inhibition [2]	Activity (MCF7 [3])	Activity (MCF7 [4])	Activity (MCF7 [5])
CCN(Cc1ccncc1)c1cccc(C(=O)N2CCc3ccc(OS(N)(=O)=O)cc3C2)c1	52.8%	33.3%	–	–	–
O=C(c1ccc(N(CCO)Cc2ccccc2)cc1)N1CCc2ccc(O)cc2C1	–	–	14.8%	8.4%	34.6%
CN(C)CCCN(Cc1ccccc1)c1ccc(C(=O)N2CCc3ccc(OS(N)(=O)=O)cc3C2)cc1	61.6%	16.2%	–	–	–
CCN(Cc1ccc(F)cc1)c1cccc(C(=O)N2CCc3ccc(O)cc3C2)c1	–	–	31.9%	9.5%	101.3%
CN(CCN1CCCCC1)c1ccc(C(=O)N2CCc3ccc(OS(N)(=O)=O)cc3C2)cc1	26.8%	0.3%	–	–	–
CCN(Cc1cccc(Br)c1)c1cccc(C(=O)N2CCc3ccc(O)cc3C2)c1	–	–	0%	0%	8.5%
O=C(c1cccc(N2CCc3ccccc3C2)c1)N1CCc2ccc(O)cc2C1	–	–	0%	0%	14.7%
CN(CCN1CCCCC1)c1ccc(C(=O)N2CCc3ccc(O)cc3C2)cc1	–	–	4.6%	2.1%	12.2%
NS(=O)(=O)Oc1ccc2c(c1)CN(C(=O)c1ccc(N3CCc4ccccc4C3)cc1)CC2	83%	56%	–	–	–
CN(C)CCN(Cc1ccccc1)c1ccc(C(=O)N2CCc3ccc(OS(N)(=O)=O)cc3C2)cc1	57.8%	13.9%	–	–	–
NS(=O)(=O)Oc1ccc2c(c1)CN(C(=O)c1ccc(N3CCSCC3)cc1)CC2	80.2%	32.3%	–	–	–
CC(C)CCN(CCC(C)C)c1cccc(C(=O)N2CCc3ccc(OS(N)(=O)=O)cc3C2)c1	75.9%	32.3%	–	–	–
CN(C)CCN(Cc1ccccc1)c1ccc(C(=O)N2CCc3ccc(O)cc3C2)cc1	–	–	6.3%	9.6%	4.6%
CCN(Cc1ccc(F)cc1)c1cccc(C(=O)N2CCc3ccc(OS(N)(=O)=O)cc3C2)c1	66.5%	10.9%	–	–	–
NS(=O)(=O)Oc1ccc2c(c1)CN(C(=O)c1ccc(N(CCCO)Cc3ccccc3)cc1)CC2	64.3%	5.7%	–	–	–
CN(C)CCCN(Cc1ccccc1)c1cccc(C(=O)N2CCc3ccc(OS(N)(=O)=O)cc3C2)c1	26%	23.8%	–	–	–
NS(=O)(=O)Oc1ccc2c(c1)CN(C(=O)c1cccc(N3CCC(N4CCCCC4)CC3)c1)CC2	8%	0%	–	–	–
O=C(c1cccc(N(CCCO)Cc2ccccc2)c1)N1CCc2ccc(O)cc2C1	–	–	14.2%	0%	94.2%
CCN(Cc1cccc(Br)c1)c1ccc(C(=O)N2CCc3ccc(OS(N)(=O)=O)cc3C2)cc1	97.2%	80.2%	–	–	–
NS(=O)(=O)Oc1ccc2c(c1)CN(C(=O)c1cccc(N3CCCCC3)c1)CC2	11.9%	1%	–	–	–
CCN(Cc1ccccn1)c1cccc(C(=O)N2CCc3ccc(O)cc3C2)c1	–	–	58.4%	10.6%	87.3%

Structure (SMILES)	inhibition [1]	inhibition [2]	Activity (MCF7 [3])	Activity (MCF7 [4])	Activity (MCF7 [5])
NS(=O)(=O)Oc1ccc2c(c1)CN(C(=O)c1cccc(N3CCC(Cc4ccccc4)CC3)c1)CC2	41.9%	1.4%	–	–	–
CCCN(Cc1ccccc1)c1ccc(C(=O)N2CCc3ccc(O)cc3C2)cc1	–	–	0%	0%	8.9%
NS(=O)(=O)Oc1ccc2c(c1)CN(C(=O)c1cccc(N(Cc3ccccc3)Cc3ccco3)c1)CC2	90.5%	27.5%	–	–	–
NS(=O)(=O)Oc1ccc2c(c1)CN(C(=O)c1cccc(N3CCSCC3)c1)CC2	39.6%	2.3%	–	–	–
NS(=O)(=O)Oc1ccc2c(c1)CN(C(=O)c1ccc(N3CCCCC3)cc1)CC2	38.3%	11.5%	–	–	–
NS(=O)(=O)Oc1ccc2c(c1)CN(C(=O)c1ccc(N(Cc3ccccc3)Cc3ccco3)cc1)CC2	98.2%	90.8%	–	–	–
CCCN(Cc1ccccc1)c1ccc(C(=O)N2CCc3ccc(OS(N)(=O)=O)cc3C2)cc1	94.3%	64.8%	–	–	–
NS(=O)(=O)Oc1ccc2c(c1)CN(C(=O)c1cccc(N(CCCO)Cc3ccccc3)c1)CC2	37.3%	25.8%	–	–	–
CN1CCN(c2cccc(C(=O)N3CCc4ccc(OS(N)(=O)=O)cc4C3)c2)CC1	12.6%	0%	–	–	–
CCN(Cc1cccnc1)c1ccc(C(=O)N2CCc3ccc(OS(N)(=O)=O)cc3C2)cc1	85.2%	35.7%	–	–	–
NS(=O)(=O)Oc1ccc2c(c1)CN(C(=O)c1cccc(N3CCN(c4ncccn4)CC3)c1)CC2	24.4%	1.6%	–	–	–
NS(=O)(=O)Oc1ccc2c(c1)CN(C(=O)c1ccc(N3CCN(c4ncccn4)CC3)cc1)CC2	41.9%	14.7%	–	–	–
NS(=O)(=O)Oc1ccc2c(c1)CN(C(=O)c1cccc(N3CCOCC3)c1)CC2	20.9%	0%	–	–	–
CCN(Cc1ccc(Br)cc1)c1ccc(C(=O)N2CCc3ccc(OS(N)(=O)=O)cc3C2)cc1	95.9%	78.2%	–	–	–
CCN(Cc1ccccc1)Cc1ccc(CN2CCc3ccc(OS(N)(=O)=O)cc3C2)cc1	17%	1%	–	–	–
CCN(Cc1ccc(F)cc1)c1ccc(C(=O)N2CCc3ccc(OS(N)(=O)=O)cc3C2)cc1	91.2%	69.1%	–	–	–
CN(CCCN1CCCCC1)c1cccc(C(=O)N2CCc3ccc(OS(N)(=O)=O)cc3C2)c1	30.6%	24.1%	–	–	–
NS(=O)(=O)Oc1ccc2c(c1)CN(C(=O)c1ccc(N3CCC(N4CCCCC4)CC3)cc1)CC2	53.7%	8.5%	–	–	–
CCN(Cc1ccccc1)Cc1ccc(S(=O)(=O)N2CCc3ccc(OS(N)(=O)=O)cc3C2)cc1	31%	10%	–	–	–
CN(C)CCN(Cc1ccccc1)c1cccc(C(=O)N2CCc3ccc(OS(N)(=O)=O)cc3C2)c1	28.6%	0%	–	–	–
CCN(Cc1ccccn1)c1ccc(C(=O)N2CCc3ccc(OS(N)(=O)=O)cc3C2)cc1	87.7%	42.5%	–	–	–

Structure (SMILES)	inhibition [1]	inhibition [2]	Activity (MCF7 [3])	Activity (MCF7 [4])	Activity (MCF7 [5])
NS(=O)(=O)Oc1ccc2c(c1)CN(C(=O)c1cccc(N3CCN(Cc4ccccc4)CC3)c1)CC2	23.7%	0%	–	–	–
CCN(Cc1ccncc1)c1ccc(C(=O)N2CCc3ccc(OS(N)(=O)=O)cc3C2)cc1	86.6%	47%	–	–	–
CCN(Cc1ccccc1)c1cccc(C(=O)N2CCc3ccc(OS(N)(=O)=O)cc3C2)c1	69%	17.3%	–	–	–
CCCN(Cc1ccccc1)c1cccc(C(=O)N2CCc3ccc(OS(N)(=O)=O)cc3C2)c1	67.4%	23.1%	–	–	–
CN1CCN(c2ccc(C(=O)N3CCc4ccc(OS(N)(=O)=O)cc4C3)cc2)CC1	23.3%	2.9%	–	–	–
NS(=O)(=O)Oc1ccc2c(c1)CN(C(=O)c1ccc(N(CCO)Cc3ccccc3)cc1)CC2	78%	27.9%	–	–	–
NS(=O)(=O)Oc1ccc2c(c1)CN(C(=O)c1ccc(N3CCOCC3)cc1)CC2	50.6%	10.9%	–	–	–
CCN(Cc1cccc(Br)c1)c1cccc(C(=O)N2CCc3ccc(OS(N)(=O)=O)cc3C2)c1	24.9%	20.9%	–	–	–
CN(CCN1CCCCC1)c1cccc(C(=O)N2CCc3ccc(OS(N)(=O)=O)cc3C2)c1	30.8%	24.5%	–	–	–
CC(C)CCN(CCC(C)C)c1ccc(C(=O)N2CCc3ccc(OS(N)(=O)=O)cc3C2)cc1	90.8%	47%	–	–	–
CCN(Cc1ccccn1)c1cccc(C(=O)N2CCc3ccc(OS(N)(=O)=O)cc3C2)c1	19.9%	6.5%	–	–	–
CCN(Cc1ccc(Br)cc1)c1cccc(C(=O)N2CCc3ccc(OS(N)(=O)=O)cc3C2)c1	84.5%	24.2%	–	–	–
CN(C)CCN(CCN(C)C)c1cccc(C(=O)N2CCc3ccc(OS(N)(=O)=O)cc3C2)c1	17.1%	0%	–	–	–
CN(C)CCN(CCN(C)C)c1ccc(C(=O)N2CCc3ccc(OS(N)(=O)=O)cc3C2)cc1	15.9%	3.8%	–	–	–
CCCN(CCC)c1cccc(C(=O)N2CCc3ccc(OS(N)(=O)=O)cc3C2)c1	54.8%	8.3%	–	–	–
NS(=O)(=O)Oc1ccc2c(c1)CN(C(=O)c1ccc(N3CCN(Cc4ccccc4)CC3)cc1)CC2	75.8%	20.8%	–	–	–
CCN(Cc1cccnc1)c1cccc(C(=O)N2CCc3ccc(OS(N)(=O)=O)cc3C2)c1	33.5%	14.3%	–	–	–
NS(=O)(=O)Oc1ccc2c(c1)CN(C(=O)c1cccc(N3CCc4ccccc4C3)c1)CC2	50.2%	24.1%	–	–	–
CN(CCCN1CCCCC1)c1ccc(C(=O)N2CCc3ccc(OS(N)(=O)=O)cc3C2)cc1	40.7%	17.4%	–	–	–
NS(=O)(=O)Oc1ccc2c(c1)CN(C(=O)c1cccc(N(CCO)Cc3ccccc3)c1)CC2	32.4%	26.7%	–	–	–
